# Experiments:
# [1] = tested on: Cell cycle (G1 attenuation); experiment: Cell cycle (G1 attenuation); assay type: cell-based
# NASH mice = experiment: Non-alcoholic steatohepatitis (STZ + high fat diet) mouse model; assay type: in vivo; conditions: for Mean body weight at the day before sacrifice: 5 to 9 weeks of age, Vehicle 18.8±1.0 g; for Fibrosis area (Sirius red-positive area): Vehicle 1.07±0.18%; for Inflammation area (F4/80-positive area): Vehicle 3.57±0.88%; for Fat deposition area (oil red-positive area): Vehicle 23.57±6.52%; for Liver TG content: Vehicle 67.3±29.0; for Whole blood HbA1c levels: FIG. 9; for NAFLD Activity score (NAS): Vehicle 5.4±0.9
# Procedure: NASH was induced in 48 male mice by a single subcutaneous injection of 200 μg streptozotocin (STZ; Sigma-Aldrich) in the back of mice 2 days after birth, and by feeding with high fat diet (HFD; 57 kcal % fat) after 4 weeks of age. At 5 weeks of age, the NASH mice were randomized into 6 groups of 8 mice based on body weight. Eight male littermates, fed with normal diet (without STZ treatment, were used for the Normal group. Vehicle, Compound A and Telmisartan were administered by the oral route in a volume of 10 mL/kg body weight.
# Compound A was administered twice daily at doses of 1, 3 or 10 mg/kg body weight (i.e., 2, 6 or 20 mg/kg/day) and once daily at dose of 30 mg/kg body weight. Telmisartan was administered once daily at a dose of 10 mg/kg body weight.
# C57BL/6 mice (15-day pregnant female) were obtained from Charles River Laboratories Japan (Japan). The animals were maintained in a SPF facility under controlled conditions of temperature (23±2° C.), humidity (45±10%), lighting (12-hour artificial light and dark cycles; light from 8:00 to 20:00) and air exchange. A high pressure (20±4 Pa) was maintained in the experimental room to prevent contamination of the facility.
# Mice were fasted for 4 hours before blood was collected at the time of sacrifice. HbA1c levels were quantified in whole blood samples by DCA Vantage Analyzer (Siemens Healthcare Diagnostics, USA). For plasma biochemistry, blood was collected in polypropylene tubes with anticoagulant (Novo-Heparin;) and centrifuged at 1,000×g for 15 minutes at 4° C. The supernatant was collected and stored at −80° C. until use. Plasma levels of glucose, ALT, TG and total cholesterol were measured by FUJI DRI-CHEM 7000 (Fujifilm, Japan). Plasma insulin concentration was quantified by the Ultra Sensitive Mouse Insulin ELISA Kit.
# Liver total lipid-extracts were obtained by Folch's method (Folch J. et al., J. Biol. Chem. 1957; 226: 497). Liver samples were homogenized in chloroform-methanol (2:1, v/v) and incubated overnight at room temperature. After washing with chloroform-methanol-water (8:4:3, v/v/v), the extracts were evaporated to dryness, and dissolved in isopropanol. Liver TG levels were measured by Triglyceride E-test (Wako Pure Chemical Industries). Extracts were diluted 2-fold in isopropanol when the TG content exceeded the detection limit.
# For HE staining, sections were cut from paraffin blocks of liver tissue prefixed in Bouin's solution and stained with Lillie-Mayer's Hematoxylin (Muto Pure Chemicals, Japan) and eosin solution (Wako Pure Chemical Industries). NAFLD Activity score (NAS) was calculated according to the criteria of Kleiner (Kleiner D E et al., Hepatology, 2005; 41:1313). To visualize collagen deposition, Bouin's fixed liver sections were stained using picro-Sirius red solution (Waldeck, Germany). To visualize macro- and microvesicular fat, cryosections were cut from frozen liver tissues, prefixed in 10% neutral buffered formalin, embedded in Tissue-Tek O.C.T. compound (Sakura Finetek Japan, Japan), and stained with Oil Red O (Sigma-Aldrich). For immunohistochemistry, sections were cut from frozen liver tissues embedded in Tissue-Tek O.C.T. compound and fixed in acetone. Endogenous peroxidase activity was blocked using 0.03% H2O2 for 5 minutes, followed by incubation with Block Ace (Dainippon Sumitomo Pharma, Japan) for 10 minutes. The sections were incubated with a 200-fold dilution of anti-F4/80 antibody (BMA Biomedicals, Switzerland) over night at 4° C. After incubation with secondary antibody (HRP-Goat anti-rat antibody, Invitrogen, USA), enzyme-substrate reactions were performed using 3, 3′-diaminobenzidine/H2O2 solution (Nichirei, Japan). […]
# [2] = i.v. and p.o. exposure study, dog; assay type: in vivo; conditions: plasma
# Procedure: (§1) Mouse, rat and dog studies were conducted to assess i.v. and p.o. (oral) exposure.
# HT1080 = HT1080 EC50; assay type: cell-based; conditions: Homo sapiens, HT-1080; second of two values 28/8, key not given
# [3] = tested on: Diet induced obese (DIO) C57BL6 mice; experiment: Diet induced obese mouse study of compound A; assay type: in vivo
# Procedure: Diet induced obese (DIO) C57BL6 mice were provided with varying doses of compound A and fumagillin (fum). Tissue biomarkers in peri-renal fat, mesenteric fat and the liver were measured.
# (FIG. 3). Decrease in plasma insulin in mice, after once or twice a day administration of compound A vs. vehicle is also observed (FIG. 4).
# [4] = i.v. and p.o. exposure study, rat; assay type: in vivo
# Procedure: as §1
# [5] = Plasma protein binding, human; assay type: in vitro ADME; conditions: read-out: Plasma protein binding (h/r/m, %): h (converted)
# hERG = hERG (Homo sapiens, UniProt Q12809); experiment: hERG IC50
# hERG, sequence (Q12809 whole entry): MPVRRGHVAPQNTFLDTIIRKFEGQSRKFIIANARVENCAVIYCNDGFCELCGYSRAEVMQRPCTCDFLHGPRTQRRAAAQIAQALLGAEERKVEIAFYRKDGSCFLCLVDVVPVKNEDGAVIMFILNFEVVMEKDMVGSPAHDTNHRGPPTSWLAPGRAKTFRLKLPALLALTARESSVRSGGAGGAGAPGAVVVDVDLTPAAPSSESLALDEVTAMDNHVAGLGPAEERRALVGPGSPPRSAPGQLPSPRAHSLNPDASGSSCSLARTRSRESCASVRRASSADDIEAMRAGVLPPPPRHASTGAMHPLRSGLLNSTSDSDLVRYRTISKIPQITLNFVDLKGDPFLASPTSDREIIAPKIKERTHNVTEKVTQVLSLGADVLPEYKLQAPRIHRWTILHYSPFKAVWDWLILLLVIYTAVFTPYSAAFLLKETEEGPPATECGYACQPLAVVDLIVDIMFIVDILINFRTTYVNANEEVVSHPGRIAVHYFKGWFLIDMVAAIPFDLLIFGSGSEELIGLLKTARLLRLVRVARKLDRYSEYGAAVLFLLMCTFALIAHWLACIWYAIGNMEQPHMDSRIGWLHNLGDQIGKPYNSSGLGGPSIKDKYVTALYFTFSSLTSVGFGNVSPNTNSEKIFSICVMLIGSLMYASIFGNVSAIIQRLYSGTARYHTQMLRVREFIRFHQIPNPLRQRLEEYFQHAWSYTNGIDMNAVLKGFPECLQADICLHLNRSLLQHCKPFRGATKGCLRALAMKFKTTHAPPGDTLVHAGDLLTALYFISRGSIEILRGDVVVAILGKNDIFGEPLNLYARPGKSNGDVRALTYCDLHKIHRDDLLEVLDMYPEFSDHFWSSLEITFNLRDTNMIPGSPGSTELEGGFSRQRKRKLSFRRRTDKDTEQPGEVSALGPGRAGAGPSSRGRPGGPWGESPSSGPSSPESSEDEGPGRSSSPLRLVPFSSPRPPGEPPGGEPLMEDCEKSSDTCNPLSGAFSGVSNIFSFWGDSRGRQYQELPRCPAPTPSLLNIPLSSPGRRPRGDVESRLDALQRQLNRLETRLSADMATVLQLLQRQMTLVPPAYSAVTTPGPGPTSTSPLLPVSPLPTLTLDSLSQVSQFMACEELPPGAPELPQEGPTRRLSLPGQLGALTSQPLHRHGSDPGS
# CYP3A4 = CYP3A4 (Homo sapiens, UniProt P08684); experiment: CYP3A4 inhibition with pre-incubation; assay type: in vitro ADME; conditions: footnote to CYP IC50, HLM
# CYP3A4, sequence (P08684 whole entry): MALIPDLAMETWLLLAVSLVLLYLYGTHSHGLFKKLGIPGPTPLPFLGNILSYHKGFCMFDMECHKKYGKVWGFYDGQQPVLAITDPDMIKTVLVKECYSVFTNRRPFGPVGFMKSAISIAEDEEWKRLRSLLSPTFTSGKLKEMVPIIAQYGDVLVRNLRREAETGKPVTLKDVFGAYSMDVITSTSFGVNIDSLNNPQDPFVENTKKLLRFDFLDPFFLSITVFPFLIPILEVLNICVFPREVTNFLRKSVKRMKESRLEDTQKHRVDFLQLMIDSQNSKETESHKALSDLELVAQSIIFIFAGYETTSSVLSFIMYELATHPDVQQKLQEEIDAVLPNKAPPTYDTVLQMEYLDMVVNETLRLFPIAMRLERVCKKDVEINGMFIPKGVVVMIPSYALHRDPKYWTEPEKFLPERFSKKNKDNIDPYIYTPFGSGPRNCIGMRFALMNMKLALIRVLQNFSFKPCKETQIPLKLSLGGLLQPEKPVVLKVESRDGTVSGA
compound,measurement,setting,value
"CCN(CC)C/C=C\c1cc(F)ccc1S(=O)(=O)Nc1ccc2c(c1C(=O)O)OC[C@@H]1C[C@H]21 (single isomer, unassigned) [Example 12]","Cell cycle (G1 attenuation, nM)",[1],3 nM
same,AMES,AMES,negative
same,HE-stained liver sections vs Vehicle group,NASH mice; 1 mg/kg (BID),No obvious differences
same,Mean body weight at the day before sacrifice,NASH mice; 1 mg/kg (BID) oral,19.2 ± 1.4 g
same,Fibrosis area (Sirius red-positive area),NASH mice; 1 mg/kg (BID),1.12±0.46%
same,Inflammation area (F4/80-positive area),NASH mice; 1 mg/kg (BID),3.67±0.91%
same,Fat deposition area (oil red-positive area),NASH mice; 1 mg/kg (BID),18.47±5.22%
same,Liver TG content,NASH mice; 1 mg/kg (BID),71.7±30.3 mg/g liver
same,Hepatocellular ballooning and inflammatory cell infiltration vs Vehicle group,NASH mice; 3 mg/kg (BID),decrease
same,Mean body weight at the day before sacrifice,NASH mice; 3 mg/kg (BID) oral,18.7 ± 1.4 g
same,Whole blood HbA1c levels,NASH mice; 3 mg/kg (BID),decreased
same,Fibrosis area (Sirius red-positive area),NASH mice; 3 mg/kg (BID),0.89±0.32%
same,Inflammation area (F4/80-positive area),NASH mice; 3 mg/kg (BID),3.47±0.65%
same,NAFLD Activity score (NAS),NASH mice; 3 mg/kg (BID),3.6±1.6
same,Fat deposition area (oil red-positive area),NASH mice; 3 mg/kg (BID),19.53±4.64%
same,Liver TG content,NASH mice; 3 mg/kg (BID),52.9±18.5 mg/g liver
same,Hepatocellular ballooning and inflammatory cell infiltration vs Vehicle group,NASH mice; 10 mg/kg (BID),decrease
same,Mean body weight at the day before sacrifice,NASH mice; 10 mg/kg (BID) oral,18.7 ± 1.0 g
same,Whole blood HbA1c levels,NASH mice; 10 mg/kg (BID),decreased
same,Fibrosis area (Sirius red-positive area),NASH mice; 10 mg/kg (BID),1.07±0.31%
same,Inflammation area (F4/80-positive area),NASH mice; 10 mg/kg (BID),3.82±0.57%
same,NAFLD Activity score (NAS),NASH mice; 10 mg/kg (BID),3.4±1.5
same,Fat deposition area (oil red-positive area),NASH mice; 10 mg/kg (BID),23.31±9.18%
same,Liver TG content,NASH mice; 10 mg/kg (BID),56.7±25.8 mg/g liver
same,HE-stained liver sections vs Vehicle group,NASH mice; 30 mg/kg (QD),No obvious differences
same,Mean body weight at the day before sacrifice,NASH mice; 30 mg/kg (QD) oral,17.9 ± 0.9 g
same,Fibrosis area (Sirius red-positive area),NASH mice; 30 mg/kg (QD),0.99±0.43%
same,Inflammation area (F4/80-positive area),NASH mice; 30 mg/kg (QD),3.90±0.78%
same,Fat deposition area (oil red-positive area),NASH mice; 30 mg/kg (QD),22.30±9.59%
same,Liver TG content,NASH mice; 30 mg/kg (QD),62.4±18.1 mg/g liver
same,Plasma total cholesterol levels,"NASH mice; BID dosing, dose dependent, FIG. 10",decreased
same,NAS,NASH mice; QD dosing (30 mg/kg),did not show evident improvement
same,Plasma total cholesterol levels,NASH mice; QD dosing (30 mg/kg),significantly decreased
same,Whole blood HbA1c,NASH mice; QD dosing (30 mg/kg),did not show evident improvement
same,clearance,[2]; iv,14 mL/min/kg
same,half-life,"[2]; iv, read-out: Plasma T1/2 (converted)",3.6 h
same,Vd,"[2]; iv, read-out: Vss",1.3 L/kg
same,AUC,[2]; po,711 ng·h/mL
same,bioavailability,[2]; po,20%
same,EC50,HT1080,8 nM
same,Expression of genes implicated in pathogenesis of fatty liver and fibrosis (liver mRNA microarray),"[3]; 3 mg/kg/bid×10 days, DIO obese mice, FIG. 6",favorably regulated
same,"Tissue biomarkers in peri-renal fat, mesenteric fat and the liver","[3]; DIO C57BL6 mice, varying doses, FIG. 1",primarily targets the liver
same,Liver weight,[3]; FIG. 5,reduction
same,Mesenteric adipose tissue weight,[3]; FIG. 5,reduction
same,Change in bodyweight after 10 days,"[3]; obese mice, increasing doses over 10 days, vs vehicle, FIG. 2",marked decrease in body weight
same,Blood cholesterol,"[3]; obese mice, vs vehicle, FIG. 3",marked lowering
same,Blood glucose,"[3]; obese mice, vs vehicle, FIG. 3",marked lowering
same,Plasma insulin,"[3]; once or twice a day administration vs vehicle, FIG. 4",Decrease
same,Kp,"[4]; liver/plasma, po, read-out: liver/plasma ratio",39
same,clearance,"[4]; plasma, iv",54 mL/min/kg
same,half-life,"[4]; plasma, iv, read-out: Plasma T1/2 (converted)",1.2 h
same,Vd,"[4]; plasma, iv, read-out: Vss",3.4 L/kg
same,AUC,"[4]; plasma, po",356 ng·h/mL
same,bioavailability,"[4]; plasma, po",22%
same,fraction unbound,[5],0.228
same,IC50,hERG,> 33000 nM
same,CYP3A4 signal with pre-incubation,CYP3A4,*CYP3A4 signal observed with pre-incubation

# — patent US10064839B2, “Methods of treating liver diseases” (Zafgen, Inc., priority 2012, dated 2018)
